Source: the supplement of paper PMC6288085
± gives the standard deviation of the averaged measurements.

How the values were obtained:
[1] = tested on: Caenorhabditis elegans N2; assay: food intake (delta OD600 day1-day4, bacterial clearance) (OD600 units); higher = more food eaten; conditions: genotype: wt, 72 h
Caenorhabditis elegans = assay: as above; conditions: 72 h
Procedure: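 C. elegans N2 or ser-5(vq1) knockout adults in 96-well plates treated with olanzapine, quetiapine, ziprasidone or serotonin over a dose range. Food intake was measured as bacterial clearance, delta OD600 from day 1 to day 4 per well (14-21 replicate wells of 5-15 animals).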

Q: Which food intake ([1]; 0.05 µM) does the source give for `Cc1cc2c(s1)Nc1ccccc1N=C2N1CCN(C)CC1` [Olanzapine] here?
A: The food intake was 0.0155 ± 0.0028.

Q: What about the food intake ([1]; 0.5 µM) of the same compound?
A: Its food intake is 0.0153 ± 0.0013.

Q: What about the food intake ([1]; 5 µM) of the same compound?
A: The food intake was 0.0152 ± 0.0038.

Q: What about the food intake ([1]; 10 µM) of the same compound?
A: The food intake was 0.0159 ± 0.0025.

Q: And the food intake ([1]; 20 µM)?
A: The food intake was 0.015 ± 0.0017.

Q: What about the food intake ([1]; 50 µM) of the same compound?
A: The food intake was 0.0149 ± 0.0025.

Q: And the food intake ([1]; 100 µM)?
A: Its food intake is 0.0184 ± 0.0027.

Q: And the food intake ([1]; 200 µM)?
A: Its food intake is 0.0186 ± 0.0027.

Q: What about the food intake (Caenorhabditis elegans; 0.5 µM, genotype: ser-5(vq1)) of the same compound?
A: The food intake was 0.0069 ± 0.0017.

Q: What about the food intake (Caenorhabditis elegans; 0.5 µM, genotype: wt) of the same compound?
A: Its food intake is 0.00731 ± 0.0022.

Q: And the food intake (Caenorhabditis elegans; 5 µM, genotype: ser-5(vq1))?
A: Its food intake is 0.00729 ± 0.0017.

Q: And the food intake (Caenorhabditis elegans; 5 µM, genotype: wt)?
A: Its food intake is 0.00919 ± 0.0018.

Q: And the food intake (Caenorhabditis elegans; 20 µM, genotype: ser-5(vq1))?
A: The food intake was 0.0081 ± 0.0016.

Q: What about the food intake (Caenorhabditis elegans; 20 µM, genotype: wt) of the same compound?
A: Its food intake is 0.0102 ± 0.0017.

Q: And the food intake (Caenorhabditis elegans; 50 µM, genotype: ser-5(vq1))?
A: The food intake was 0.00845 ± 0.0018.

Q: And the food intake (Caenorhabditis elegans; 50 µM, genotype: wt)?
A: The food intake was 0.0117 ± 0.0018.

Q: And the food intake (Caenorhabditis elegans; 100 µM, genotype: ser-5(vq1))?
A: Its food intake is 0.00859 ± 0.0022.

Q: What about the food intake (Caenorhabditis elegans; 100 µM, genotype: wt) of the same compound?
A: The food intake was 0.0138 ± 0.0019.

Q: What about the food intake (Caenorhabditis elegans; 200 µM, genotype: ser-5(vq1)) of the same compound?
A: Its food intake is 0.00839 ± 0.0019.

Q: What about the food intake (Caenorhabditis elegans; 200 µM, genotype: wt) of the same compound?
A: The food intake was 0.0148 ± 0.0024.

Q: For `CN(C)CC/C=C1/c2ccccc2Sc2ccc(Cl)cc21` [Chlorprothixene], which food intake ([1]; 0.4 µM) is on record?
A: Its food intake is 0.0203 ± 0.0033.

Q: What about the food intake ([1]; 2 µM) of the same compound?
A: Its food intake is 0.0255 ± 0.0055.

Q: What about the food intake ([1]; 10 µM) of the same compound?
A: Its food intake is 0.0194 ± 0.0019.

Q: How did the food intake ([1]; 0.05 µM) turn out when `CN1CCN(C2=Nc3ccccc3Oc3ccc(Cl)cc32)CC1` [Loxapine] was run?
A: Its food intake is 0.0139 ± 0.0032.

Q: And the food intake ([1]; 0.5 µM)?
A: The food intake was 0.0143 ± 0.003.

Q: And the food intake ([1]; 5 µM)?
A: The food intake was 0.0196 ± 0.0047.

Q: And the food intake ([1]; 10 µM)?
A: The food intake was 0.0212 ± 0.0027.

Q: And the food intake ([1]; 20 µM)?
A: The food intake was 0.0217 ± 0.002.

Q: What about the food intake ([1]; 50 µM) of the same compound?
A: Its food intake is 0.0234 ± 0.0019.

Q: What about the food intake ([1]; 100 µM) of the same compound?
A: The food intake was 0.023 ± 0.0034.

Q: And the food intake ([1]; 200 µM)?
A: Its food intake is 0.0195 ± 0.0029.

Q: What does the source list for `O=C1Cc2cc(CCN3CCN(c4nsc5ccccc45)CC3)c(Cl)cc2N1` [Ziprasidone]?
A: food intake ([1]; 0.01 µM): 0.00881 ± 0.0015; food intake ([1]; 0.03 µM): 0.0107 ± 0.0022; food intake ([1]; 0.1 µM): 0.0128 ± 0.0021; food intake ([1]; 0.3 µM): 0.0136 ± 0.0016; food intake ([1]; 1 µM): 0.0136 ± 0.0024; food intake ([1]; 3 µM): 0.0138 ± 0.0019; food intake (Caenorhabditis elegans; 0.01 µM, genotype: ser-5(vq1)): 0.00508 ± 0.0018; food intake (Caenorhabditis elegans; 0.01 µM, genotype: wt): 0.00821 ± 0.0024; food intake (Caenorhabditis elegans; 0.03 µM, genotype: ser-5(vq1)): 0.00569 ± 0.0015; food intake (Caenorhabditis elegans; 0.03 µM, genotype: wt): 0.00974 ± 0.0022; food intake (Caenorhabditis elegans; 0.1 µM, genotype: ser-5(vq1)): 0.00662 ± 0.0014; food intake (Caenorhabditis elegans; 0.1 µM, genotype: wt): 0.0135 ± 0.0022; food intake (Caenorhabditis elegans; 0.3 µM, genotype: ser-5(vq1)): 0.00664 ± 0.0016; food intake (Caenorhabditis elegans; 0.3 µM, genotype: wt): 0.0153 ± 0.0027; food intake (Caenorhabditis elegans; 1 µM, genotype: ser-5(vq1)): 0.00712 ± 0.0025; food intake (Caenorhabditis elegans; 1 µM, genotype: wt): 0.0145 ± 0.0029; food intake (Caenorhabditis elegans; 3 µM, genotype: ser-5(vq1)): 0.0061 ± 0.0015; food intake (Caenorhabditis elegans; 3 µM, genotype: wt): 0.0145 ± 0.0032

Q: How did the food intake ([1]; 0.01 µM) turn out when `CN1CC2c3ccccc3Oc3ccc(Cl)cc3C2C1` (stereo not drawn) [Asenapine] was run?
A: Its food intake is 0.00861 ± 0.0014.

Q: What about the food intake ([1]; 0.03 µM) of the same compound?
A: The food intake was 0.0107 ± 0.002.

Q: And the food intake ([1]; 0.1 µM)?
A: The food intake was 0.0122 ± 0.0018.

Q: What about the food intake ([1]; 0.3 µM) of the same compound?
A: The food intake was 0.0127 ± 0.0016.

Q: What about the food intake ([1]; 1 µM) of the same compound?
A: The food intake was 0.0127 ± 0.0018.

Q: What about the food intake ([1]; 3 µM) of the same compound?
A: Its food intake is 0.0112 ± 0.0017.

Q: For `NCCc1c[nH]c2ccc(O)cc12` [Serotonin], which food intake (Caenorhabditis elegans; 100 µM, genotype: ser-5(vq1)) is on record?
A: The food intake was 0.00664 ± 0.0014.

Q: And the food intake (Caenorhabditis elegans; 100 µM, genotype: wt)?
A: The food intake was 0.00773 ± 0.0016.

Q: And the food intake (Caenorhabditis elegans; 500 µM, genotype: ser-5(vq1))?
A: Its food intake is 0.00869 ± 0.0018.

Q: What about the food intake (Caenorhabditis elegans; 500 µM, genotype: wt) of the same compound?
A: The food intake was 0.00951 ± 0.0034.

Q: And the food intake (Caenorhabditis elegans; 1000 µM, genotype: ser-5(vq1))?
A: The food intake was 0.0118 ± 0.0024.

Q: And the food intake (Caenorhabditis elegans; 1000 µM, genotype: wt)?
A: The food intake was 0.0142 ± 0.0025.

Q: And the food intake (Caenorhabditis elegans; 2000 µM, genotype: ser-5(vq1))?
A: The food intake was 0.0155 ± 0.0025.

Q: And the food intake (Caenorhabditis elegans; 2000 µM, genotype: wt)?
A: The food intake was 0.0176 ± 0.0028.

Q: And the food intake (Caenorhabditis elegans; 5000 µM, genotype: ser-5(vq1))?
A: The food intake was 0.0182 ± 0.0025.

Q: And the food intake (Caenorhabditis elegans; 5000 µM, genotype: wt)?
A: Its food intake is 0.0199 ± 0.0031.

Q: What about the food intake (Caenorhabditis elegans; 10000 µM, genotype: ser-5(vq1)) of the same compound?
A: The food intake was 0.0182 ± 0.003.

Q: What about the food intake (Caenorhabditis elegans; 10000 µM, genotype: wt) of the same compound?
A: Its food intake is 0.0189 ± 0.0036.

Q: Which food intake ([1]; 0.1 µM) does the source give for `OCCOCCN1CCN(C2=Nc3ccccc3Sc3ccccc32)CC1` [Quetiapine] here?
A: Its food intake is 0.00598 ± 0.0014.

Q: And the food intake ([1]; 3 µM)?
A: The food intake was 0.00727 ± 0.0012.

Q: What about the food intake ([1]; 10 µM) of the same compound?
A: Its food intake is 0.00847 ± 0.0015.

Q: What about the food intake ([1]; 30 µM) of the same compound?
A: The food intake was 0.0103 ± 0.0018.

Q: And the food intake ([1]; 100 µM)?
A: The food intake was 0.0115 ± 0.0024.

Q: And the food intake ([1]; 200 µM)?
A: Its food intake is 0.0118 ± 0.0032.

Q: And the food intake (Caenorhabditis elegans; 0.1 µM, genotype: ser-5(vq1))?
A: The food intake was 0.00593 ± 0.0015.

Q: And the food intake (Caenorhabditis elegans; 0.1 µM, genotype: wt)?
A: Its food intake is 0.00754 ± 0.0018.

Q: And the food intake (Caenorhabditis elegans; 3 µM, genotype: ser-5(vq1))?
A: The food intake was 0.00574 ± 0.0014.

Q: And the food intake (Caenorhabditis elegans; 3 µM, genotype: wt)?
A: The food intake was 0.00775 ± 0.0022.

Q: What about the food intake (Caenorhabditis elegans; 10 µM, genotype: ser-5(vq1)) of the same compound?
A: Its food intake is 0.00662 ± 0.0017.

Q: What about the food intake (Caenorhabditis elegans; 10 µM, genotype: wt) of the same compound?
A: The food intake was 0.00993 ± 0.0021.

Q: What about the food intake (Caenorhabditis elegans; 30 µM, genotype: ser-5(vq1)) of the same compound?
A: Its food intake is 0.00674 ± 0.0016.

Q: What about the food intake (Caenorhabditis elegans; 30 µM, genotype: wt) of the same compound?
A: The food intake was 0.0118 ± 0.0027.

Q: What about the food intake (Caenorhabditis elegans; 100 µM, genotype: ser-5(vq1)) of the same compound?
A: The food intake was 0.00602 ± 0.0015.

Q: What about the food intake (Caenorhabditis elegans; 100 µM, genotype: wt) of the same compound?
A: The food intake was 0.0127 ± 0.0034.

Q: What about the food intake (Caenorhabditis elegans; 200 µM, genotype: ser-5(vq1)) of the same compound?
A: Its food intake is 0.0055 ± 0.0014.

Q: What about the food intake (Caenorhabditis elegans; 200 µM, genotype: wt) of the same compound?
A: Its food intake is 0.0103 ± 0.0026.

Q: Which food intake ([1]; 0.05 µM) does the source give for `CN(C)CCCN1c2ccccc2Sc2ccc(Cl)cc21` [Chlorpromazine] here?
A: Its food intake is 0.0145 ± 0.0024.

Q: What about the food intake ([1]; 0.1 µM) of the same compound?
A: Its food intake is 0.0149 ± 0.003.

Q: What about the food intake ([1]; 0.2 µM) of the same compound?
A: The food intake was 0.0171 ± 0.0044.

Q: And the food intake ([1]; 0.5 µM)?
A: The food intake was 0.0191 ± 0.0025.

Q: What about the food intake ([1]; 0.75 µM) of the same compound?
A: Its food intake is 0.0204 ± 0.0038.

Q: And the food intake ([1]; 1 µM)?
A: The food intake was 0.0201 ± 0.0033.

Q: And the food intake ([1]; 2 µM)?
A: The food intake was 0.0233 ± 0.0053.

Q: What about the food intake ([1]; 5 µM) of the same compound?
A: Its food intake is 0.0214 ± 0.0034.
